EP0216028A2, “Use of anthranilic-acid derivatives as anthelmintic medicaments” (HOECHST AKTIENGESELLSCHAFT, priority 1985, dated 1987)
Like-named read-outs stand apart in the source and are kept apart here.

System: Leberegel (Fasciola hepatica)
Test: Chemotherapeutic test in sheep infected with liver fluke (egg count reduction / worm burden)
Assay type: in vivo
Conditions: Wirtstier: Schaf, p.o.; for minimal effective dose: Fasciola hepatica, po, read-out: Dosis (>90% Reduktion der Wurmbürde); for Chemotherapeut. Index: quotient of Dosis tolerata maxima and Dosis curativa minima
Source text: Zur Feststellung der anthelminthischen Wirkung der Verbindungen der Formel I wurden chemotherapeutische Untersuchungen an ca. 25-30 kg schweren Schaflämmern ausgeführt, die entweder mit Metazerkarien von Fasciola hepatica oder mit Larven von Magen-Darm-Strongyliden, vornehmlich Haemonchus contortus und Trichostongylus colubriformis, oral infiziert worden waren. Nach Ablauf der Präpatenzperiode (Zeit zwischen Infektion und Geschlechtsreife der Parasiten mit beginnender Ausscheidung von Eiern oder Larven) wurde der Parasitenbefall durch Kotuntersuchungen gesichert. […] Unmittelbar danach wurde die Behandlung der Schafe (im allgemeinen 3 - 4 Tiere pro Wirkstoff, mindestens aber 2) vorgenommen. Den Tieren wurde oral oder parenteral eine Suspension von unterschiedlicher Wirkstoffmenge in jeweils 10 ml einer 1%igen Carboxymethylcellulose-Suspension appliziert. Jeweils am 7., 14. und 28. Tag nach der Behandlung wurde wiederum nach den vorstehend angegebenen Verfahren die Eizahl pro Gramm Kot ermittelt und ihre prozentuale Abnahme im Vergleich zum Ausgangswert vor der Behandlung errechnet. Mit einigen Verbindungen wurden außerdem beim Fasciola-Befall noch eine zusätzliche Prüftechnik angewandt: Nach Abschluß der Präpatenzperiode wurde bei Fasciola-positiven Schafen ein künstlicher Gallengang geschaffen, der am Ausgang der Gallenblase ein Sieb enthielt, so daß die nach der Behandlung abgetöteten Leberegel in der Gallenblase aufgefangen werden konnten. Vier bis sieben Tage nach der Behandlung wurden die so operierten und dann behandelten Schafe getötet, die abgetöteten Leberegel in der Gallenblase sowie noch eventuell in der Leber vorhandene lebende Leberegel gezählt und von der gesamten Wurmbürde der Prozentsatz der abgetöteten Parasiten berechnet.
Der chemotherapeutische Index gibt den Quotienten aus Do- sis tolerata maxima und Dosis curativa minima an.

[1] = Tabelle 1, minimum curative dose
[2] = Tabelle 3 (comparison of isomers)

Row | SMILES | minimal effective dose [1] | Chemotherapeut. Index (Tabelle 1) | minimal effective dose [2] | Chemotherapeut. Index [2] | Dosis (>90% Reduktion der Wurmbürde) [2]
1 | CCCCCCCCNC(=O)c1cc(Cl)ccc1NS(=O)(=O)c1ccc(Cl)c(Cl)c1 [Verbindung 27, 5-Chlor-2-[(3,4-dichlor-phenylsulfonyl)-amino]-benzoesäure-octylamid] | 7.5 mg/kg | 8 | – | – | –
2 | O=C(Nc1ccc(Cl)cc1)c1ccc(Cl)cc1NS(=O)(=O)c1ccc(Cl)cc1 [V1, 4-Chlor-2-[(4-chlor-phenylsulfonyl)-amino]-benzoesäure-(4-chloranilid), reference compound] | – | – | 30 mg/kg | 2 | –
3 | O=C(Nc1ccc(Cl)cc1)c1cc(NS(=O)(=O)c2ccc(Cl)cc2)ccc1Cl [V5, reference compound] | – | – | 30 mg/kg | 2 | –
4 | O=C(Nc1ccc(Cl)cc1)c1ccc(Br)cc1NS(=O)(=O)c1ccc(Cl)cc1 [V9, 4-Brom-2-[(4-chlor-phenylsulfonyl)-amino]-benzoesäure-(4-chlor-anilid), reference compound] | – | – | 20 mg/kg | 3 | –
5 | O=C(Nc1ccc(Br)cc1)c1cc(Cl)ccc1NS(=O)(=O)c1ccc(Cl)cc1 [Verbindung 5, 5-Chlor[(4-chlor-phenylsulfonyl)-amino]-benzoesäure-(4-brom-anilid)] | 5 mg/kg | 10 | – | – | –
6 | CCCCCCCCCCCCN(C)C(=O)c1cc(Cl)ccc1NS(=O)(=O)c1ccc(Cl)cc1 [Verbindung 19, 5-Chlor-2-[(4-chlor-phenylsulfonyl)-amino]-benzoesäure-(N-methyl-dodecylamid)] | 7.5 mg/kg | 5 | – | – | –
7 | O=C(Nc1ccc(Cl)cc1)c1ccc(Cl)c(NS(=O)(=O)c2ccc(Cl)cc2)c1 [V4, 4-Chlor-3-[(4-Chlorphenylsulfonyl)-amino]-benzoesäure-(4-chlor-anilid), reference compound] | – | – | 15 mg/kg | 4 | –
8 | O=C(Nc1ccc(Cl)cc1)c1ccc(NS(=O)(=O)c2ccc(Cl)cc2)c(Cl)c1 [V3, reference compound] | – | – | 30 mg/kg | 2 | –
9 | O=C(Nc1ccc(Cl)cc1)c1cc(Cl)c(Cl)cc1NS(=O)(=O)c1ccc(Cl)cc1 [Verbindung 12, 4,5-Dichlor-2-[(4-chlor-phenylsulfonyl)-amino]-benzoesäure-(4-chlor-anilid)] | 5 mg/kg | 10 | – | – | –
10 | O=C(Nc1ccc(Cl)cc1)c1ccc(NS(=O)(=O)c2ccc(Cl)cc2)cc1Cl [V2, reference compound] | – | – | 20 mg/kg | 3 | –
11 | O=C(Nc1ccc(F)cc1)c1cc(NS(=O)(=O)c2ccc(Cl)cc2)ccc1Cl [V7, 2-Chlor-5-[(4-chlor-phenylsulfonyl)-amino]-benzoesäure-(4-fluor-anilid), reference compound] | – | – | 30 mg/kg | 2 | –
12 | CCCCCCCCCCCCCCCCCCNC(=O)c1cc(Cl)ccc1NS(=O)(=O)c1ccc(Cl)c(Cl)c1 [Verbindung 32, 5-Chlor-2-[(3,4-dichlor-phenyl-sulfonyl)-amino]-benzoesäure-octa-decylamid] | 5 mg/kg | 10 | – | – | –
13 | CCN(C(=O)c1cc(Cl)ccc1NS(=O)(=O)c1ccc(Cl)c(Cl)c1)c1ccc(Cl)cc1 [Verbindung 29] | 1.5 mg/kg | über 25 | – | – | –
14 | O=C(Nc1ccc(Cl)cc1)c1cc(Cl)ccc1NS(=O)(=O)c1ccc(Cl)cc1Cl [Verbindung 25, 5-Chlor-2-[(2,4-dichlor-phenylsulfonyl)-amino]-benzoesäure-(4-chloranilid)] | 7.5 mg/kg | 6 | – | – | –
15 | O=C(Nc1ccc(Cl)cc1)c1cc(Cl)ccc1NS(=O)(=O)c1ccc(Cl)c(Cl)c1 [Verbindung 26, 5-Chlor-2-[(3,4-dichlor-phenylsulfonyl)-amino]-benzoesäure-(4-chlor-anilid)] | 1 mg/kg | über 25 | – | über 25 | 1 mg/kg Körpergewicht
